The record followed here is patent US9499561B2, “Fused pyrimidine compound, and preparation method, intermediate, composition, and uses thereof” (Shanghai Yingli Science and Technology Co., Ltd., priority 2012, dated 2016).

One series concerns the target PI3Kα (Homo sapiens (Human), UniProt P42336). Nature of the series: PI3Kα enzymatic inhibitory activity IC50 assay (Caliper Reader). It counts as biochemical. The method, then: (§1) Biological Effect Example 1 PI3Kα and PI3Kδ Enzymatic Inhibitory Activity IC50 Assay • 1. Buffer preparation: 50 mM HEPES, pH 7.5, 3 mM MgCl2, 1 mM EGTA, 100 mM NaCl, 0.03% CHAPS. • 2. Compound was formulated in 100% DMSO in a concentration gradient, deposited to a 384-well plate to make final DMSO concentration of 1%. • 3. PI3Kα and PI3Kδ enzymes were diluted to be the optimum concentration with the following buffer: 50 mM HEPES, pH 7.5, 3 mM MgCl2, 1 mM EGTA, 100 mM NaCl, 0.03% CHAPS, 2 mM DTT. Transferred to a 384-well plate and incubated with the compound for a certain time. • 4. […] The reaction was performed in a 384-well plate for 1 h at room temperature for PI3Kα and 2 hrs at room temperature for PI3Kδ. • 5. Read the conversion rate using Caliper Reader, and calculate the inhibition rate as the average of two tests.

The target in another series is PI3Kδ (Homo sapiens (Human), UniProt O00329). Briefly: PI3Kδ enzymatic inhibitory activity IC50 assay (Caliper Reader). It counts as biochemical. The method, then: as §1
The subject of another series is U87-MG. Briefly: Cell proliferation inhibition assay (MTT), U87-MG. It counts as cell-based. The conditions noted are these: 72 hrs. The method, then: (§2) Cancer cell lines (A549, PC3, or […]) in the logarithmic growth phase were plated at a density of about 3,000 per well in 96-well plates, 90 μL/well, using double wells for each concentration. Control wells containing corresponding concentration of vehicle and without cells were also prepared. After 24 hrs, positive control compound and example compounds were added to make 10 μL/well and final DMSO concentration of 0.5%. The cells were incubated with compounds for 72 hrs in the presence of 10% Invitrogen fetal bovine serum, 37° C., 5% CO2. 5 mg/mL MTT solution was added to make 10 μL/well, and incubated for 4 hours at 37° C. A ddH2O solution (10% SDS, 5% isobutanol, 10 mmol/L HCl) was added to make 100 μL/well and incubated overnight at 37° C.

Another series deals with A549. Nature of the series: Cell proliferation inhibition assay (MTT), A549. The format is cell-based. Conditions: 72 hrs. The method, then: as §2
Another series relates to PC3. Briefly: Cell proliferation inhibition assay (MTT), PC3. It counts as cell-based. The conditions noted are these: 72 hrs. The method, then: as §2
The nature of series [1]: Body weight of nude mice in the U87MG xenograft study, preliminary evaluation of compound toxicity. The conditions noted are these: for Body weight D 0: day 0; for Body weight D 20: day 20. The format is in vivo. The method, then:
(§3) Groups of nude mice were implanted subcutaneously in the right hind back with 4×10^6 U87MG cells. Start dosing when mean tumor volume reached approximately 150 (100-200) mm^3. Grouping method: before dosing, animals were weighted, tumor sizes were measured, and randomized according to the tumor size (randomized block design), 8 mice per group. A solvent (0.5% CMC-Na+0.2% Tween-80) was dosed once daily by oral gavage for solvent control group, and pre-determined dose of test compound was dosed once daily by oral gavage for a dosing group, for 20 consecutive days.
(§4) Tumor diameters were measured twice a week with a vernier caliper. Tumor volume was calculated with formula: V=0.5a×b^2, a and b represent longer and shorter diameter of tumor. […] Meanwhile, the weight of nude mice in each group was weighed twice weekly for a preliminary evaluation of compound toxicity.

In series [2] the test system is malignant glioma cell U87MG xenograft. Nature of the series: Growth inhibition of malignant glioma cell U87MG xenograft in nude mice. The format is in vivo. The conditions noted are these: for TGI: 20 days; for Tumor size D 0: day 0; for Tumor size D 20: day 20. The method, then:
as §3, §4

Setting [3] is: 20 mg/kg once daily oral gavage.
Where [4] appears, read: 50 mg/kg once daily oral gavage.
Setting [5] is: 150 mg/kg once daily oral gavage.
Where [6] appears, read: 25 mg/kg once daily oral gavage.

PI3Kα, sequence (P42336 whole entry): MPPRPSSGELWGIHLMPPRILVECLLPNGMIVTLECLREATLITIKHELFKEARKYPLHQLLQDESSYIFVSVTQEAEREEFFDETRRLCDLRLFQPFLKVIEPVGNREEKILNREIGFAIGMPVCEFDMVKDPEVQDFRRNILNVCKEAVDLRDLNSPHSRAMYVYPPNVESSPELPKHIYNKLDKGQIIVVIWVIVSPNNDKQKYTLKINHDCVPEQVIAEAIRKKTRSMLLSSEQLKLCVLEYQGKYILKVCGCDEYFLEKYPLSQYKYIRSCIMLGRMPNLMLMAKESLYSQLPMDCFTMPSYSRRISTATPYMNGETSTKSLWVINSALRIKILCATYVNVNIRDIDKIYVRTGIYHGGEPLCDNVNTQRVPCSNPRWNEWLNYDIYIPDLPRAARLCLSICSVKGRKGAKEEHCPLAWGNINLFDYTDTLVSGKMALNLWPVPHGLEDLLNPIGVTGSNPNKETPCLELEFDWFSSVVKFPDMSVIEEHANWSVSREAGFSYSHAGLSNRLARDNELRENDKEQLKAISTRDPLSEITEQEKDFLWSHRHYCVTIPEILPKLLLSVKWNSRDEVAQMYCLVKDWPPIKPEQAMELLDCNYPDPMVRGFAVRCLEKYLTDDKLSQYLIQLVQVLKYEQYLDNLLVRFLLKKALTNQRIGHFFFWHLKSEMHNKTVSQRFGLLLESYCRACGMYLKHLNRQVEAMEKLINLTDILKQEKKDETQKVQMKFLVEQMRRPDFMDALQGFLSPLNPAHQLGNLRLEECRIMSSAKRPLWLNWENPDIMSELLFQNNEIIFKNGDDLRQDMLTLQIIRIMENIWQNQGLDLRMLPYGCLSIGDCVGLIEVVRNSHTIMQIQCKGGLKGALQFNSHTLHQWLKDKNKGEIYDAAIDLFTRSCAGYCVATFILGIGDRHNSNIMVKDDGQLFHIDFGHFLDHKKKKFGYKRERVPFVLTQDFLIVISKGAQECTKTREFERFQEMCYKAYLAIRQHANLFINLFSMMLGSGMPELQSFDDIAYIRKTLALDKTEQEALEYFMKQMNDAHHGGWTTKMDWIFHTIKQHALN
PI3Kα, sequence (P27986 whole entry partner): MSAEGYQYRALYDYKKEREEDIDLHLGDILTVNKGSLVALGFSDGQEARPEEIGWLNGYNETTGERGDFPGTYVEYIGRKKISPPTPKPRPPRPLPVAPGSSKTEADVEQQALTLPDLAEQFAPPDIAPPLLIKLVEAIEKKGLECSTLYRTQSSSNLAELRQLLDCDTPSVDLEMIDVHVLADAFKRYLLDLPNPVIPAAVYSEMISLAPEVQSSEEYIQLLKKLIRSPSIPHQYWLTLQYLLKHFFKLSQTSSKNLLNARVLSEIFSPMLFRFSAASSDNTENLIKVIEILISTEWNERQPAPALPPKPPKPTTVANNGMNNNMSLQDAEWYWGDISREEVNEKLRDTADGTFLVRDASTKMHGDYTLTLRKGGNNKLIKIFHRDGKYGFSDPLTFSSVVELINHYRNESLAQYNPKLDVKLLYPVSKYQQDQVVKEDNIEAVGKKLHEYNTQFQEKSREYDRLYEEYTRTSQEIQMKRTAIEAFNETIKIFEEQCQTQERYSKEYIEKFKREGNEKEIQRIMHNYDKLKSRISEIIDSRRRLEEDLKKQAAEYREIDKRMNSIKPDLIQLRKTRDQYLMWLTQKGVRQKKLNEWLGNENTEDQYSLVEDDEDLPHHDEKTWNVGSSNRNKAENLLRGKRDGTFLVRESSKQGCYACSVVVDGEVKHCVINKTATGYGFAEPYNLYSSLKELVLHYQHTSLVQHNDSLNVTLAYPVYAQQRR
PI3Kδ, sequence (O00329 whole entry): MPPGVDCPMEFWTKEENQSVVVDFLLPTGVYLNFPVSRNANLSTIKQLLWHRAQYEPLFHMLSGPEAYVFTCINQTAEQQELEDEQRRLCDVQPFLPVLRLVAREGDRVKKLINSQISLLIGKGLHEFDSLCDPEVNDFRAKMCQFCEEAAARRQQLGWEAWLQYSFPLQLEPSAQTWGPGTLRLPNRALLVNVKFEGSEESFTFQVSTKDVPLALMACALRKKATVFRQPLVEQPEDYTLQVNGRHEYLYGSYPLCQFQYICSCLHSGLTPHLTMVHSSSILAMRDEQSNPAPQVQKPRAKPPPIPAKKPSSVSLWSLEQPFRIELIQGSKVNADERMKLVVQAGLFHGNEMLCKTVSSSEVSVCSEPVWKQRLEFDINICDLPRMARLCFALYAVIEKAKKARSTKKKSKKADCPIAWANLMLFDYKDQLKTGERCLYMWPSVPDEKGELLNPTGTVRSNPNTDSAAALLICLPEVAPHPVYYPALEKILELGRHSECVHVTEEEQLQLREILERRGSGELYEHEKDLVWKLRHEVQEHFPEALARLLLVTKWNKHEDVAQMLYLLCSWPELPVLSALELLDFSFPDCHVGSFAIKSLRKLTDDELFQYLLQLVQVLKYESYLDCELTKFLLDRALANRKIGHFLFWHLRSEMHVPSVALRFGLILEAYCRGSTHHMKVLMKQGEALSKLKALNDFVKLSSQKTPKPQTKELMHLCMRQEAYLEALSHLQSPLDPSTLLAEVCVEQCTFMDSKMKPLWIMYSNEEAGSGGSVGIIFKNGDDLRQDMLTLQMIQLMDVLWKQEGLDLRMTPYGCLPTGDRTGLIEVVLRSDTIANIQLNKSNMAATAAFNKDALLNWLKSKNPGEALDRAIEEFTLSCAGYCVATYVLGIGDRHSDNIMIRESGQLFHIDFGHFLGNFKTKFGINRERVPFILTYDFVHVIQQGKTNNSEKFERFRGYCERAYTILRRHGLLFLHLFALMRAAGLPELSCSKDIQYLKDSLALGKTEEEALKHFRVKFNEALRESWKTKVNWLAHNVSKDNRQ
PI3Kδ, sequence (P27986 whole entry partner): as the sequence (P27986 whole entry partner) above

A word on the IC50: it is the concentration needed to halve the response being measured. In the case of `CS(=O)(=O)N1CCN(Cc2csc3c(-c4ccc(N)nc4)nc(N4CCOCC4)nc23)CC1` [Compound 12], the IC50 on PI3Kα was determined as 232 nM; at PI3Kδ it was 190 nM.
As to `CS(=O)(=O)N1CCN(Cc2csc3c(-c4cncnc4)nc(N4CCOCC4)nc23)CC1` [Compound 15], the IC50 was determined as 104 nM at PI3Kα and 200 nM on PI3Kδ.
For `C[C@H](O)C(=O)N1CCN(Cc2csc3c(-c4cccc5[nH]ncc45)nc(N4CCOCC4)nc23)CC1` [Compound 27], in that order: 76 nM and 18 nM.
As for `C[C@H](O)C(=O)N1CCN(Cc2csc3c(-c4cnc(N)nc4)nc(N4CCOCC4)nc23)CC1` [Compound 18], the IC50 in the series with U87-MG was found to be 8870 nM; in the series on A549, 3640 nM; at PI3Kα, 12 nM; with PC3, 2310 nM; against PI3Kδ it was 12.6 nM.
Turning to `CC(C)(O)C(=O)N1CCN(Cc2csc3c(-c4cnc(N)nc4)nc(N4CCOCC4)nc23)CC1` [Compound 20], the IC50 was found to be 46.2 nM on PI3Kα and 52 nM against PI3Kδ.
In the case of `Cc1sc2c(-c3cnc(N)nc3)nc(N3CCOCC3)nc2c1CN1CCN(C(=O)CO)CC1` [Compound 29], the IC50 in the series with U87-MG came out at 3740 nM; in the series on A549, 2700 nM; against PI3Kα it was 18 nM; in the series with PC3, 1490 nM; against PI3Kδ, 7 nM. The “Body weight D 0” value turned out to be 22.40 g in series [1] (setting [3]), 22.21 g in series [1] (setting [4]) and 22.76 g in series [1] (setting [5]). The “Body weight D 20” value was found to be 22.69 g in series [1] (setting [3]), 21.99 g in series [1] (setting [4]) and 20.62 g in series [1] (setting [5]). Also, the “tolerability / toxic side effects (in words)” value in series [1] (high dose (150 mg/kg)) is “the tested mice can still torelate even the high dose”. The TGI in series [2] (setting [3]) is recorded as 88.38%; in series [2] (setting [4]) it was 102.88%; in series [2] (setting [5]), 113.86%. Also, the “Tumor size D 0” value in series [2] (setting [3]) is reported as 148.62 mm^3; in series [2] (setting [4]) it was 151.36 mm^3; in series [2] (setting [5]) it was 148.16 mm^3. For the same molecule, the “Tumor size D 20” value in series [2] (setting [3]) worked out at 232.84 mm^3; in series [2] (setting [4]), 130.48 mm^3; in series [2] (setting [5]), 47.70 mm^3. For the same molecule, the “ability to inhibit tumor growth compared with GDC-0941 (in words)” value in series [2] (U87MG xenograft in nude mice) was “significantly better than GDC-0941”. Moreover, the “in vivo anti-tumor activity (in words)” value in series [2] (U87MG xenograft in nude mice) is “strong in vivo anti-tumor activity”.
Take `CN(Cc1csc2c(-c3cnc(N)nc3)nc(N3CCOCC3)nc12)C(=O)CO` [Compound 32]: the IC50 against PI3Kα came to 32 nM.
In the case of `Nc1ncc(-c2nc(N3CCOCC3)nc3ccoc23)cn1` [Compound 31], the IC50 against PI3Kα was determined as 26 nM; against PI3Kδ it was 290 nM.
Consider `Nc1ncc(-c2nc(N3CCOCC3)nc3c(CN4CCN(C(=O)CO)CC4)csc23)cn1` [Compound 28], for which the IC50 in the series on U87-MG was 4460 nM; with A549, 2600 nM; at PI3Kα, 24 nM; in the series on PC3, 1940 nM; against PI3Kδ, 38 nM.
Consider `Cc1sc2c(-c3cnc(N)nc3)nc(N3CCOCC3)nc2c1CN1CCN(C(=O)[C@@H](C)O)CC1` [Compound 25], for which the IC50 in the series on U87-MG was determined as 11300 nM; with A549, 6680 nM; against PI3Kα it was 56 nM; with PC3, 3060 nM; against PI3Kδ, 13 nM.
For `Cc1sc2c(-c3cnc(N)nc3)nc(N3CCOCC3)nc2c1CN1CCN(C(=O)[C@H](C)O)CC1` [Compound 24], in that order: 9360 nM, 2740 nM, 18.9 nM, 2070 nM and 8.3 nM.
As for `Cc1sc2c(-c3cccc4[nH]ncc34)nc(N3CCOCC3)nc2c1CN1CCN(S(C)(=O)=O)CC1` [Compound 30], the values for the IC50 at PI3Kα and against PI3Kδ were 262 nM and 60.4 nM, respectively.
The matching figures for `Cc1sc2c(-c3cnc(N)nc3)nc(N3CCOCC3)nc2c1CN1CCN(CCO)CC1` [Compound 36]: 157 nM and 56 nM.
With `C[C@@H](O)C(=O)N1CCN(Cc2csc3c(-c4cccc5[nH]ncc45)nc(N4CCOCC4)nc23)CC1` [Compound 23], the values for the half-maximal inhibitory concentration (IC50) at PI3Kα and at PI3Kδ were 202 nM and 16 nM, respectively.
For the molecule `CS(=O)(=O)N1CCN(Cc2csc3c(-c4cccc5[nH]ncc45)nc(N4CCOCC4)nc23)CC1` [Compound 6], the IC50 is 7410 nM with U87-MG; 4640 nM in the series with A549; 57 nM against PI3Kα; 6110 nM with PC3; 62 nM on PI3Kδ.
`Cc1nc(N)ncc1-c1nc(N2CCOCC2)nc2c(CN3CCN(C(=O)[C@H](C)O)CC3)csc12` [Compound 22]: the results for the IC50 at PI3Kα and on PI3Kδ were 77 nM and 11 nM, respectively.
For the molecule `CS(=O)(=O)N1CCN(Cc2cc3nc(-c4cccc5[nH]ncc45)nc(N4CCOCC4)c3s2)CC1` [GDC-0941, reference compound], in series [1] (setting [6]), the “Body weight D 0” value came to 22.24 g and the “Body weight D 20” value is 23.64 g. In series [1] (setting [4]), the “Body weight D 0” value is listed as 22.47 g and the “Body weight D 20” value amounted to 23.57 g. In addition, in series [2] (setting [6]), the TGI is listed as 57.65%, the “Tumor size D 0” value amounted to 149.86 mm^3 and the “Tumor size D 20” value is 456.64 mm^3. In series [2] (setting [4]), the TGI was 66.07%, the “Tumor size D 0” value amounted to 150.72 mm^3 and the “Tumor size D 20” value is recorded as 396.57 mm^3.
`Cc1nc(N)ncc1-c1nc(N2CCOCC2)nc2c(CN3CCN(C(=O)[C@H](C)O)CC3)csc12` [Compound 21]: the values for the IC50 at PI3Kα and against PI3Kδ were 35 nM and 4.7 nM, respectively.
For the molecule `C[C@@H](O)C(=O)N1CCN(Cc2csc3c(-c4cnc(N)nc4)nc(N4CCOCC4)nc23)CC1` [Compound 19], the concentration for half-maximal inhibition (IC50) with U87-MG stood at 8080 nM; in the series with A549, 3990 nM; against PI3Kα, 51.4 nM; in the series on PC3, 2610 nM; on PI3Kδ, 31.9 nM.
The matching figures for `O=C(CO)N1CCN(Cc2csc3c(-c4cccc5[nH]ncc45)nc(N4CCOCC4)nc23)CC1` [Compound 26]: 19700 nM, 9330 nM, 141 nM, 3280 nM and 41 nM.
For `CS(=O)(=O)N1CCN(Cc2csc3c(-c4cccc(O)c4)nc(N4CCOCC4)nc23)CC1` [Compound 13], the figures for the IC50 against PI3Kα and against PI3Kδ were 265 nM and 327 nM, respectively.
`Cc1nc(N)ncc1-c1nc(N2CCOCC2)nc2c(CN3CCN(S(C)(=O)=O)CC3)csc12` [Compound 11]: the IC50 was 12200 nM with U87-MG; 6440 nM with A549; 13.1 nM on PI3Kα; 10100 nM with PC3; 28.3 nM at PI3Kδ.
For `CC(C)(O)C1CCN(Cc2csc3c(-c4cnc(N)nc4)nc(N4CCOCC4)nc23)CC1` [Compound 17], in that order: 7810 nM, 4820 nM, 245 nM, 5390 nM and 65.4 nM.
